Where two headings read alike, the source gives them in different places.
Columns and labels:
human CB2R [1] = target: T1, human CB2R (Homo sapiens, UniProt P34972); experiment: CB2R-mediated suppression of forskolin-stimulated cAMP synthesis (agonistic activity), CHO cells expressing human CB2R; format: cell-based
T1 construct: The coding region of human CB2R cDNA; expressed in transfected cells
Description: After the incubation, 4 μM forskolin (Sigma) was added and the cells were incubated for 20 min at 37° C. The reaction was stopped by the addition of 1N HCl and the amount of cAMP in the cell supernatant was measured using an EIA kit (Amersham Pharmacia Biotech) according to the manufacture's protocol.

[2] = target: T2, human CB1 receptor (CB1R) (Homo sapiens, UniProt P21554); experiment: Receptor binding assay of human CB1 receptor (CB1R), membranes of CB1R-expressing CHO cells
T2 construct: expressed in transfected cells
T2 sequence (P21554 whole entry): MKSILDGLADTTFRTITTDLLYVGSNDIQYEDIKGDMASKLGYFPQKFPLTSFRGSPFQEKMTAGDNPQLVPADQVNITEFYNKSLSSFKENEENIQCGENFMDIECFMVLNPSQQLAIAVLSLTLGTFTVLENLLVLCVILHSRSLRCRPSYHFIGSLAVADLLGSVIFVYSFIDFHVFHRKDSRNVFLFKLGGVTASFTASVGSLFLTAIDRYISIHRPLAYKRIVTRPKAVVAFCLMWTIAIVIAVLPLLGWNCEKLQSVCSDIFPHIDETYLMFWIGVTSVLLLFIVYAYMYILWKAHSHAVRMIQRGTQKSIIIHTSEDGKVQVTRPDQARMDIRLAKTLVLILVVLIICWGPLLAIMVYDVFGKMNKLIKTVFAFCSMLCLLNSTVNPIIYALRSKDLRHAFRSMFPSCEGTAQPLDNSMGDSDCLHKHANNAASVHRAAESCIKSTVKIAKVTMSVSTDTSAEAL
Description: (§1) The crude membrane fractions were then prepared from the CB2R-expressing CHO cells. Receptor binding assay was performed by incubating the membranes with each test compound and [^3H]CP55940 (at a final concentration of 0.5 nM: NEN Life Science Products) in the assay buffer (50 mM Tris-HCl, 1 mM EDTA, 3 mM MgCl2, pH 7.4) containing 0.5% bovine serum albumin (BSA) for 2 hr at 25° C. The incubation mixture was filtered through 1% polyethylenimine (PEI)-treated GF/C glass filter and washed with 50 mM Tris-HCl (pH 7.4) containing 0.1% BSA. The radioactivity was then counted with a liquid scintillation counter.
(§2) For the receptor binding assay of human CB1 receptor (CB1R), the stable CB1R-expressing CHO cells were prepared as described above, and the binding assay was performed with their membrane fractions. As a consequence of these studies, the Ki values of each test compound for both cannabinoid receptors were determined, which were presented in Table 89.

human CB2R [3] = target: T1, human CB2R; experiment: Human CB2 receptor (CB2R) binding inhibition, [3H]CP55940, membranes of CB2R-expressing CHO cells
Description: The prepared vector was transfected into Chinese Hamster Ovary (CHO) cells with LipofectAMINE reagent (Gibco BRL) according to the manufacture's protocol, and the stable CB2R-expressing clones were selected.
as §1, §2

[4] = test system: SRBC-induced DTH reaction; experiment: Sheep red blood cell (SRBC)-induced delayed type hypersensitive (DTH) reaction, foot pad swelling; format: in vivo; conditions: female ddY mice, measured after 24 hrs
Description: Female ddY mice (7 weeks old) were used for the sheep red blood cell (SRBC)-induced delayed type hypersensitive (DTH) reaction.
Cannabinoid receptor agonist, I-6, I-60, I-77 and I-118 were suspended in 0.6% arabic gum solution. Mice were sensitized by the intradermal injection of 10^7 cells of SRBC (40 μl/foot) into the left hind foot pad. After 5 days, DTH reaction was induced by the intradermal injection of 10^8 cells of SRBC in the right hind foot pad. Test compounds were administerd p.o. (10 ml/kg) 1 hr before and 5 hr after the induction of DTH reaction. After 24 hrs of the injection of SRBC, the left and right foot pad volumes were measured by the water displacement method. The foot pad swelling was calculated as the differences in the volumes between the right and left hind foot pad, and used as an index of the DTH reaction.
Data are expressed as the inhibition percentage of each compound. Statistical analysis was performed with Welch's t-test, in which the value of P<0.05 is considered as a significant difference.

[5] = dose 30 mg/kg p.o. 1 hr before and 5 hr after induction

T1 sequence (P34972 whole entry): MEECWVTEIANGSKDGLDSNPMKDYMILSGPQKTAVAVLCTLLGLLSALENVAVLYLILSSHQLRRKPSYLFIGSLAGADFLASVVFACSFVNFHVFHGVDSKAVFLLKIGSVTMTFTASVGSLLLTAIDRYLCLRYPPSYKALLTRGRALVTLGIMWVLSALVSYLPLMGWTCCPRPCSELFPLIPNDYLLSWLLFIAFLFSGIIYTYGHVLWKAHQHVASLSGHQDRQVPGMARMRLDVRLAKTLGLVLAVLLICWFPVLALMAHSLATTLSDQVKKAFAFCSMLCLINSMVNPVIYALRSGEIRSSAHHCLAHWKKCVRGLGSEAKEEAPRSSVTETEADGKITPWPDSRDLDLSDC

Compound	Ki [2] [nM]	Ki (human CB2R [3]) [nM]	other results
CCOc1ccc(/N=C2\SCC(C)(C)CN2C(=O)OC)cc1OCC			melting point: 75 to 76 °C
CCOC(=O)N1CC(C)(C)CSC1=Nc1ccccc1C(C)C			melting point: 84 to 86 °C
CSC(=S)N1CC(C)(C)CSC1=Nc1ccccc1C(C)C [Compound I-5, 2-(2-isopropylphenyl)imino-3-(methylthio)thiocarbonyl-5,5-dimethyl-1,3-thiazine]	> 5000	61	IC50 (human CB2R [1]): 6.5 nM; melting point: 77 to 79 °C
CCSC(=O)N1CCSC1=Nc1ccccc1C(C)C [Compound I-6, 3-(ethylthiocarbonyl)-2-(2-isopropylphenyl)imino-1,3-thiazolidine]		9	IC50 (human CB2R [1]; CHO cells expressing human CB2R, 4 μM forskolin, read-out: IC50 (inhibition of forskolin-stimulated cAMP synthesis)): 2.7 nM; melting point: 79 to 81 °C; Inhibition percentage (foot pad swelling, DTH reaction) ([4]; dose 40 mg/kg p.o. 1 hr before and 5 hr after induction): 45.2%
CCSC(=O)N1CC(C)(C)CSC1=Nc1ccccc1C(C)CC (stereo not drawn) [Compound I-23]	> 5000	29	IC50 (human CB2R [1]): 2.6 nM
CSC(=O)N1CC(C)(C)CSC1=Nc1ccccc1C(C)C [Compound I-50]	> 5000	39	
CCC(C)c1ccccc1N=C1SCC(C)(C)CN1C(=O)SC (stereo not drawn) [Compound I-51]		23	IC50 (human CB2R [1]): 2.8 nM
CSC(=O)N1CC(C)(C)CSC1=Nc1cccc(C(C)C)c1 [Compound I-52]		35	
CCc1ccccc1N=C1SCC(C)(C)CN1C(=S)SC [Compound I-56]		54	
CCC(C)c1ccccc1N=C1SCC(C)(C)CN1C(=S)SC (stereo not drawn) [Compound I-57]	4130	6	IC50 (human CB2R [1]): 5.5 nM
COc1ccccc1N=C1SCC(C)(C)CN1C(=S)SC [Compound I-60]	2100	18	Inhibition percentage (foot pad swelling, DTH reaction) [4, 5]: 31.1%
CSC(=S)N1CC(C)(C)CSC1=Nc1ccccc1SC [Compound I-62]		44	
CSC(=S)N1CC(C)(C)CSC1=Nc1cccc(C(C)C)c1 [Compound I-69]		33	
CSC(=S)N1CC(C)(C)CSC1=Nc1ccc(C)c(C)c1 [Compound I-74]		48	
COc1ccc(N=C2SCC(C)(C)CN2C(=S)SC)cc1OC [Compound I-77]		53	Inhibition percentage (foot pad swelling, DTH reaction) [4, 5]: 33.8%
CCSC(=S)N1CC(C)(C)CSC1=Nc1ccccc1C(C)C [Compound I-84]	> 5000	35	
CCSC(=S)N1CC(C)(C)CSC1=Nc1ccccc1C(C)CC (stereo not drawn) [Compound I-85]		25	

From patent US6818640B1, “2-imino-1,3-thiazine derivatives” (Shionogi & Co., Ltd., priority 1999, dated 2004)
